# Measured values reported in ChEMBL document CHEMBL3612037, “Design and synthesis of some new pyrazolyl-pyrazolines as potential anti-inflammatory, analgesic and antibacterial agents” (Eur J Med Chem, 2015).
# Activity calls are given as the source filed them. No cut-off for these calls is given here.
# Experiments:
# Rattus norvegicus [1] = test: Anti-inflammatory activity in Wistar rat assessed as inhibition of carrageenan-induced paw oedema at 50 mg/kg, po dosed 30 mins before carrageenan challenge and measured 30 mins post carrageenan challenge; assay type: functional
# Rattus norvegicus [2] = test: Anti-inflammatory activity in Wistar rat assessed as inhibition of carrageenan-induced paw oedema at 50 mg/kg, po dosed 30 mins before carrageenan challenge and measured 60 mins post carrageenan challenge; assay type: functional
# Rattus norvegicus [3] = test: Anti-inflammatory activity in Wistar rat assessed as inhibition of carrageenan-induced paw oedema at 50 mg/kg, po dosed 30 mins before carrageenan challenge and measured 120 mins post carrageenan challenge; assay type: functional
# Rattus norvegicus [4] = test: Analgesic activity in Wistar rat assessed as tail flick latency time at 50 mg/kg, po measured 0 mins post dose by tail flick method (reference value: 3.5 +/- 0.8 secs); assay type: functional
# Rattus norvegicus [5] = test: Analgesic activity in Wistar rat assessed as tail flick latency time at 50 mg/kg, po measured 30 mins post dose by tail flick method (reference value: 3.46 +/- 0.1 secs); assay type: functional
# Rattus norvegicus [6] = test: Analgesic activity in Wistar rat assessed as tail flick latency time at 50 mg/kg, po measured 60 mins post dose by tail flick method (reference value: 3.47 +/- 0.1 secs); assay type: functional
# Rattus norvegicus [7] = test: Analgesic activity in Wistar rat assessed as tail flick latency time at 50 mg/kg, po measured 90 mins post dose by tail flick method (reference value: 3.7 +/- 0.1 secs); assay type: functional
# Mus musculus [8] = test: Acute toxicity in Swiss mouse assessed as induction of diarrhoea incidence at 100 to 1000 mg/kg, po measured 48 hrs post dose; assay type: organism-based; details: in vivo
# Mus musculus [9] = test: Acute toxicity in Swiss mouse assessed as induction of depression incidence at 100 to 1000 mg/kg, po measured 48 hrs post dose; assay type: organism-based; details: in vivo
# [10] = Acute toxicity in Swiss mouse at 100 to 1000 mg/kg, po measured 48 hrs post dose; assay type: organism-based; details: in vivo
# Staphylococcus = test: Antimicrobial activity against Staphylococcus citreus at 20 uL of 1 mg/ml by disc diffusion assay; assay type: functional; details: for zone of inhibition at 1000 µg/mL: read-out: IZ
# Staphylococcus aureus = test: Antimicrobial activity against Staphylococcus aureus at 20 uL of 1 mg/ml by disc diffusion assay; assay type: functional; details: for zone of inhibition at 1000 µg/mL: read-out: IZ
# Aeromonas hydrophila = test: Antimicrobial activity against Aeromonas hydrophila at 20 uL of 1 mg/ml by disc diffusion assay; assay type: functional; details: for zone of inhibition at 1000 µg/mL: read-out: IZ
# Escherichia coli = test: Antimicrobial activity against Escherichia coli at 20 uL of 1 mg/ml by disc diffusion assay; assay type: functional; details: for zone of inhibition at 1000 µg/mL: read-out: IZ
SMILES,inhibition in vivo at 50 mg/kg (Rattus norvegicus [1]) [%],inhibition in vivo at 50 mg/kg (Rattus norvegicus [2]) [%],inhibition in vivo at 50 mg/kg (Rattus norvegicus [3]) [%],Time (Rattus norvegicus [4]) [s],Time (Rattus norvegicus [5]) [s],Time (Rattus norvegicus [6]) [s],Time (Rattus norvegicus [7]) [s],Activity (Mus musculus [8]),Activity (Mus musculus [9]),LD50 at 48 h [10] [mg/kg],zone of inhibition at 1000 µg/mL (Staphylococcus) [mm],zone of inhibition at 1000 µg/mL (Staphylococcus aureus) [mm],zone of inhibition at 1000 µg/mL (Aeromonas hydrophila) [mm],inhibition zone (IZ) (Escherichia coli),inhibition zone (IZ) (Staphylococcus aureus),inhibition zone (IZ) (Aeromonas hydrophila),zone of inhibition at 1000 µg/mL (Escherichia coli) [mm],inhibition zone (IZ) (Staphylococcus)
CC(=O)N1N=C(c2ccc(Cl)cc2)CC1c1cn(-c2ccccc2)nc1-c1ccc(Cl)c(Cl)c1 (stereo not drawn),45.7,57.2,66.4,3.5,5.5,5.9,5.1,Non-toxic,Non-toxic,500,13,21,19,inactive,,,,
Cc1ccc(C2=NN(C=O)C(c3cn(-c4ccccc4)nc3-c3ccc(Cl)c(Cl)c3)C2)cc1 (stereo not drawn),35.1,53.4,60.9,3.4,4.7,4.6,4.4,Non-toxic,Non-toxic,500,16,,,,inactive,inactive,20,
CCC(=O)N1N=C(c2ccc(C)cc2)CC1c1cn(-c2ccccc2)nc1-c1ccc(Cl)c(Cl)c1 (stereo not drawn),29.8,61.1,70.3,3.3,5.3,6.4,5.9,Non-toxic,Non-toxic,500,,24,,,,inactive,22,inactive
O=CN1N=C(c2ccc(Cl)cc2)CC1c1cn(-c2ccccc2)nc1-c1ccc(Cl)c(Cl)c1 (stereo not drawn),35.1,51.1,57.8,3,4.5,4.7,4.3,Non-toxic,Non-toxic,500,21,18,,inactive,,inactive,,
O=[N+]([O-])c1ccc(N2N=C(c3ccc(F)cc3)CC2c2cn(-c3ccccc3)nc2-c2ccc(Cl)c(Cl)c2)cc1 (stereo not drawn),45.7,60.3,65.6,3.8,5.1,5.7,5.2,Non-toxic,Non-toxic,500,21,20,,inactive,,inactive,,
O=[N+]([O-])c1ccc(N2N=C(c3ccc(Cl)cc3)CC2c2cn(-c3ccccc3)nc2-c2ccc(Cl)c(Cl)c2)cc1 (stereo not drawn),48.9,57.2,69.5,3.4,6.9,7,6.6,Non-toxic,Non-toxic,500,18,22,21,,,,31,
CC(=O)N1N=C(c2ccc(F)cc2)CC1c1cn(-c2ccccc2)nc1-c1ccc(Cl)c(Cl)c1 (stereo not drawn),45.7,59.5,72.7,3.5,6.8,6.5,6.6,Non-toxic,Non-toxic,500,,,19,,inactive,,12,inactive
Cc1ccc(C2=NN(c3ccc([N+](=O)[O-])cc3)C(c3cn(-c4ccccc4)nc3-c3ccc(Cl)c(Cl)c3)C2)cc1 (stereo not drawn),57.4,72.5,71.9,3.4,7,7.4,6.6,Non-toxic,Non-toxic,500,16,21,19,,,,16,
Fc1ccc(C2=NNC(c3cn(-c4ccccc4)nc3-c3ccc(Cl)c(Cl)c3)C2)cc1 (stereo not drawn),45.7,40.5,46.1,3.1,4.5,4.8,4.2,Non-toxic,Non-toxic,500,23,14,16,inactive,,,,
Cc1ccc(C2=NNC(c3cn(-c4ccccc4)nc3-c3ccc(Cl)c(Cl)c3)C2)cc1 (stereo not drawn),38.3,56.5,48.4,3.6,5.9,6.3,6.5,Non-toxic,Non-toxic,500,,19,11,,,,15,inactive
O=CN1N=C(c2ccc(F)cc2)CC1c1cn(-c2ccccc2)nc1-c1ccc(Cl)c(Cl)c1 (stereo not drawn),37.2,56.5,60.9,3.5,6.3,6.4,6.6,Non-toxic,Non-toxic,500,18,13,10,,,,12,
CC(=O)N1N=C(c2ccc(C)cc2)CC1c1cn(-c2ccccc2)nc1-c1ccc(Cl)c(Cl)c1 (stereo not drawn),27.6,59.5,70.3,3.5,5.3,5.5,5.5,Non-toxic,Non-toxic,500,,19,,,,inactive,18,inactive
